Source: article PMC10871122, “Synthesis and In Vitro Evaluation as Potential Anticancer and Antioxidant Agents of Diphenylamine-Pyrrolidin-2-one-Hydrazone Derivatives” (International Journal of Molecular Sciences, 2023)

Tests used:
[1] = test system: human foreskin fibroblasts (HF) CRL-4001; assay: MTT cell viability assay, fibroblasts; type: cell-based; conditions: 100 µM, 72 h
From the text: (§1) The human malignant melanoma cell line IGR39, human triple-negative breast cancer MDA-MB-231, and human pancreatic carcinoma cell line Panc-1 were obtained from the American Type Culture Collection (ATCC, Manassas, VA, USA). Human foreskin fibroblasts (HF) CRL-4001 were originally obtained from ATCC and kindly provided by Prof. Helder Santos (University of Helsinki, Finland). Primary prostate carcinoma PPC-1 cell line was kindly provided by Prof. Tambet Teesalu (University of Tartu, Estonia). All cell lines were cultured in Dulbecco’s Modified Eagle’s GlutaMAX medium (Gibco (Carlsbad, CA, USA)), supplemented with 10,000 U/mL penicillin, 10 mg/mL streptomycin (Gibco), and 10% fetal bovine serum (Gibco). Cell cultures were grown at 37 °C in a humidified atmosphere containing 5% CO2. They were used until the passage of 20.
(§2) The effect of synthesized compounds on cell viability was studied using 3-(4,5-dimethylthiazol-2-yl)-2,5-diphenyltetrazolium bromide (MTT; Sigma-Aldrich Co., St Louis, MO, USA) assay, as described elsewhere. To summarize, the cells were seeded in triplicates in 96-well Corning plates (IGR39, MDA-MB-231, Panc-1 and PPC1: 4 × 10^3 cells/well; HF: 5 × 10^3 cells/well). The cells were treated with 100 μM of tested compounds after 24 h of incubation. After 72 h, the MTT reagent was added and the formazan crystals that had formed were dissolved in DMSO (Sigma-Aldrich Co., St. Louis, MO, USA). The absorbance was determined with a multidetection microplate reader at 570 and 630 nm.
(§3) The compound serial dilutions ranging from 50 µM to 1.56 µM were introduced to the cells. The Hill equation was used to calculate the EC50 value, or the concentration of a compound that results in a 50% reduction in the metabolic activity of cells.

[2] = test system: human melanoma IGR39 cell line; assay: MTT cell viability assay, melanoma IGR39; type: cell-based; conditions: 100 µM, 72 h, MTT
From the text: as §1, §2, §3

[3] = Ferric reducing antioxidant power (FRAP) assay; conditions: for reducing power activity compared to the control antioxidant: vs protocatechuic acid; for FRAP reducing power (Fe^2+): absorbance at 593 nm
From the text: The ferric reducing antioxidant power (FRAP) assay was used to evaluate the antioxidant potential of new compounds 2–17. Antioxidant assays are based on determining reduction power reactions (e.g., reduction Fe^3+ to Fe^2+) or scavenging free radicals (DPPH, ABTS). The FRAP assay is based on the method of single electron transfer (SET), measuring the reduction in the complex of ferric ions (Fe^3+)-ligand to the blue ferrous complex (Fe^2+). This method uses 2,4,6-tripyridyl-s-triazine (TPTZ) as the linking ligand to the iron. The antioxidant activity of the synthesized compounds was compared with that of the well-known antioxidant protocatechuic acid. […] PCA is a building block for pharmaceuticals and is widely used to produce many medicinal products such as veratridine (sodium channel inactivation inhibitor), erlotinib (antineoplastic), Picatin II (treatment of hepatitis B), itopride hydrochloride (gastrointestinal motility drug). PCA can also cause the induction of apoptosis of human leukemia cells. Moreover, the antioxidant activity of PCA is based on the reduction in free radical formation via the up-regulation of genes encoding enzymes with neutralizing activities.
Antioxidant activity was determined as an increase in absorbance at 593 nm, and the results were expressed as of Fe^2+ μmol/L and in relation to antioxidants, and protocatechuic acid, as positive control. The FRAP reagent contained 2.5 mL of 10 mM TPTZ solution in 40 mM HCl as well as 2.5 mL of FeCl3 (20 mM) and 25 mL of acetate buffer (0.3 M, pH = 3.6). Then, 100 μL of analyzed compounds (20 mM) were mixed with 3 mL of the FRAP reagent. The absorbance of the reaction mixture was measured spectrophotometrically at 593 nm using a UV-1280 UV-VIS spectrophotometer (Shimadzu Corporation, Kyoto, Japan). To compose the calibration curve, five concentrations of FeSO4·7H2O (5, 10, 15, 20, 25 μM) were used, and the absorbance was measured as a sample solution.

[4] = test system: tested cancer cell lines (IGR39, PPC-1, MDA-MB-231, Panc-1); assay: MTT cell viability assay, statements on the tested cancer cell lines together; type: cell-based, human; conditions: for selectivity against cancer cells: after determination of the dose-effect correlation; for inhibition of cancer cell viability: 100 µM, 72 h, MTT
Protocol: as §2, §3

[5] = test system: prostate carcinoma PPC-1 cell line; assay: MTT cell viability assay, prostate carcinoma PPC-1; type: cell-based, human; conditions: 100 µM, 72 h, MTT
From the text: as §1, §2, §3

Compound | melting point [°C] | effect on fibroblasts compared to cancer cell lines [1] | effect on cell viability compared among the cell lines [2] | reducing power activity compared to the control antioxidant [3] | selectivity against cancer cells [4] | FRAP reducing power (Fe^2+) [3] [µmol/L] | effect on cell viability compared among the cell lines [5] | inhibition of cancer cell viability [4] | antioxidant activity (FRAP) relative to protocatechuic acid [3] [times]
O=C(NN=Cc1ccccc1)C1CC(=O)N(c2ccc(Nc3ccccc3)cc2)C1 (stereo not shown) [Compound 2, N′-benzylidene-5-oxo-1-(4-(phenylamino)phenyl)pyrrolidine-3-carbohydrazide] | 122 to 123 | affected fibroblasts more than the tested cancer cell lines | strongest effect on melanoma cells | higher than those of known antioxidants used as the controls |  |  |  |  | 
O=C(NN=Cc1ccc(Br)cc1)C1CC(=O)N(c2ccc(Nc3ccccc3)cc2)C1 (stereo not shown) [Compound 3, N′-(4-bromobenzylidene)-5-oxo-1-(4-(phenylamino)phenyl)pyrrolidine-3-carbohydrazide] | 198 to 199 |  | strongest effect on melanoma cells | higher than those of known antioxidants used as the controls | nonselective against cancer cells | 120.08 |  |  | 
O=C(NN=Cc1ccc(Cl)cc1)C1CC(=O)N(c2ccc(Nc3ccccc3)cc2)C1 (stereo not shown) [Compound 4, N′-(4-chlorobenzylidene)-5-oxo-1-(4-(phenylamino)phenyl)pyrrolidine-3-carbohydrazide] | 209 to 210 |  |  |  | nonselective against cancer cells |  | most active against the prostate carcinoma cell line |  | 
CN(C)c1ccc(C=NNC(=O)C2CC(=O)N(c3ccc(Nc4ccccc4)cc3)C2)cc1 (stereo not shown) [Compound 7, N′-(4-(dimethylamino)benzylidene)-5-oxo-1-(4-(phenylamino)phenyl)pyrrolidine-3-carbohydrazide] | 218 to 219 | affected fibroblasts more than the tested cancer cell lines |  | higher than those of known antioxidants used as the controls |  |  |  |  | 
CCN(CC)c1ccc(C=NNC(=O)C2CC(=O)N(c3ccc(Nc4ccccc4)cc3)C2)c(O)c1 (stereo not shown) [Compound 8, N′-(4-(diethylamino)-2-hydroxybenzylidene)-5-oxo-1-(4-(phenylamino)phenyl)pyrrolidine-3-carbohydrazide] | 239 to 240 | affected fibroblasts more than the tested cancer cell lines | strongest effect on melanoma cells | higher than those of known antioxidants used as the controls |  | 120.24 |  |  | 
O=C(NN=Cc1ccccc1[N+](=O)[O-])C1CC(=O)N(c2ccc(Nc3ccccc3)cc2)C1 (stereo not shown) [Compound 9, N′-(2-nitrobenzylidene)-5-oxo-1-(4-(phenylamino)phenyl)pyrrolidine-3-carbohydrazide] | 192 to 193 |  | strongest effect on melanoma cells | higher than those of known antioxidants used as the controls |  | 118.32 |  | less than 20% | 
CSc1ccc(C=NNC(=O)C2CC(=O)N(c3ccc(Nc4ccccc4)cc3)C2)cc1 (stereo not shown) [Compound 10, N′-(4-(methylthio)benzylidene)-5-oxo-1-(4-(phenylamino)phenyl)pyrrolidine-3-carbohydrazide] | 193 to 194 | affected fibroblasts more than the tested cancer cell lines | strongest effect on melanoma cells |  |  |  |  |  | 
O=C(O)c1ccc(O)c(O)c1 [protocatechuic acid, 3,4-dihydroxybenzoic acid, reference compound] |  |  |  |  |  | 109.05 |  |  | 

Now from value to compound, other results behind:

melting point [°C] | Compound | effect on fibroblasts compared to cancer cell lines [1] | effect on cell viability compared among the cell lines [2] | reducing power activity compared to the control antioxidant [3] | selectivity against cancer cells [4] | FRAP reducing power (Fe^2+) [3] [µmol/L] | effect on cell viability compared among the cell lines [5] | inhibition of cancer cell viability [4] | antioxidant activity (FRAP) relative to protocatechuic acid [3] [times]
234 to 235 | O=C(NN=Cc1ccc[nH]1)C1CC(=O)N(c2ccc(Nc3ccccc3)cc2)C1 (stereo not shown) [Compound 11, N′-((1H-pyrrol-2-yl)methylene)-5-oxo-1-(4-(phenylamino)phenyl)pyrrolidine-3-carbohydrazide] |  |  |  |  |  | most active against the prostate carcinoma cell line | less than 20% | 
240 to 241 | O=C(NN=Cc1ccc(Br)s1)C1CC(=O)N(c2ccc(Nc3ccccc3)cc2)C1 (stereo not shown) [Compound 12, N′-((5-bromothiophen-2-yl)methylene)-5-oxo-1-(4-(phenylamino)phenyl)pyrrolidine-3-carbohydrazide] | affected fibroblasts more than the tested cancer cell lines |  | higher than those of known antioxidants used as the controls |  |  | most active against the prostate carcinoma cell line |  | 
225 to 226 | CC(=NNC(=O)C1CC(=O)N(c2ccc(Nc3ccccc3)cc2)C1)c1ccccc1 (stereo not shown) [Compound 15, 5-Oxo-1-(4-(phenylamino)phenyl)-N′-(1-phenylethylidene)pyrrolidine-3-carbohydrazide] |  | strongest effect on melanoma cells | higher than those of known antioxidants used as the controls |  | 123.05 |  | less than 20% | 
230 to 231 | CC(=NNC(=O)C1CC(=O)N(c2ccc(Nc3ccccc3)cc2)C1)c1ccc(N)cc1 (stereo not shown) [Compound 16, N′-(1-(4-aminophenyl)ethylidene)-5-oxo-1-(4-(phenylamino)phenyl)pyrrolidine-3-carbohydrazide] |  | strongest effect on melanoma cells | higher than those of known antioxidants used as the controls |  | 132.14 |  | less than 20% | 1.2
239 to 240 | CC(=NNC(=O)C1CC(=O)N(c2ccc(Nc3ccccc3)cc2)C1)c1cccc(N)c1 (stereo not shown) [Compound 17, N′-(1-(3-aminophenyl)ethylidene)-5-oxo-1-(4-(phenylamino)phenyl)pyrrolidine-3-carbohydrazide] | affected fibroblasts more than the tested cancer cell lines |  | higher than those of known antioxidants used as the controls |  | 129.28 | most active against the prostate carcinoma cell line |  | 
